{
  "source": "patent US12612386B2",
  "about": "“Heteroaryl-triazole compounds as pesticides” (Bayer Aktiengesellschaft, priority 2020, dated 2026)",
  "data": [
    {"test_system": "cattle tick larvae (Rhipicephalus microplus), strain Parkhurst, resistant against synthetic pyrethroids", "experiment": "Rhipicephalus (Boophilus) microplus in-vitro contact test, larval cattle tick", "format": "in vivo", "details": "5 μg/cm^2 (=500 g/ha), after 48 hours", "method": "Rhipicephalus (Boophilus) Microplus—In-Vitro Contact Tests Larval Cattle Tick (Strain Parkhurst, Resistant Against Synthetic Pyrethroids)\n(§1) 9 mg compound is solved in 1 mL acetone and diluted with acetone to the desired concentration. 250 μL of the test solution is filled in 25 mL glass test tubes and homogeneously distributed on the inner walls by rotation and tilting on a shaking device (2 h at 30 rpm). With a compound concentration of 900 ppm, an inner surface of 44.7 cm^2 and a homogeneous distribution, a dose of 5 μg/cm^2 is achieved.\nAfter the solvent has evaporated, each test tube is filled with 20-50 cattle tick larvae (Rhipicephalus microplus), closed with a perforated lid and incubated in a horizontal position at 85% relative humidity and 27° C. in an incubator. After 48 hours efficacy is determined. The larvae are patted on the ground of the tubes and negative geotactic behavior is recorded.\nAn efficacy of 100% means all larvae are dead or moribund; 0% means no larvae are dead or moribund.", "units": {"efficacy (larvae dead or moribund)": "%"}, "values": [
      {"molecule": "Cc1nc([C@H](C)NC(=O)c2cc(Cl)cc(OC(F)(F)F)c2)n(-c2cc(C(N)=O)ncn2)n1", "note": "[I-85]", "efficacy (larvae dead or moribund)": 100},
      {"molecule": "CNC(=O)c1cc(-n2nc(C)nc2[C@H](C)NC(=O)c2cc(Cl)cc(OC(F)(F)F)c2)ncn1", "note": "[I-87]", "efficacy (larvae dead or moribund)": 100},
      {"molecule": "Cc1nc([C@H](C)NC(=O)c2cc(Br)cc(OC(F)F)c2)n(-c2cc(C(N)=O)ncn2)n1", "note": "[I-89]", "efficacy (larvae dead or moribund)": 100},
      {"molecule": "Cc1nc([C@H](C)NC(=O)c2cc(Cl)cc(Cl)c2)n(-c2cc(C(N)=O)ncn2)n1", "note": "[I-95]", "efficacy (larvae dead or moribund)": 100},
      {"molecule": "Cc1nc([C@H](C)NC(=O)c2cc(OC(F)F)cc(OC(F)F)c2)n(-c2cc(C(N)=O)ncn2)n1", "note": "[I-98]", "efficacy (larvae dead or moribund)": 100}
    ]},
    {"test_system": "adult cat fleas (Ctenocephalides felis)", "experiment": "Ctenocephalides felis in-vitro contact test, adult cat flea", "format": "in vivo", "details": "5 μg/cm^2 (=500 g/ha), after 48 hours", "method": "Ctenocephalides felis—In-Vitro Contact Tests Adult Cat Flea\nas §1\n(§2) After the solvent has evaporated, each test tube is filled with 5-10 adult cat fleas (Ctenocephalides felis), closed with a perforated lid and incubated in a lying position at room temperature and relative humidity. After 48 hours efficacy is determined. The fleas are patted on the ground of the tubes and are incubated on a heating plate at 45-50° C. for at most 5 minutes. Immotile or uncoordinated moving fleas, which are not able to escape the heat by climbing upwards, are marked as dead or moribund.\nAn efficacy of 100% means all fleas are dead or moribund; 0% means no fleas are dead or moribund.", "units": {"efficacy (fleas dead or moribund)": "%"}, "values": [
      {"molecule": "Cc1nc([C@H](C)NC(=O)c2cc(Cl)cc(OC(F)(F)F)c2)n(-c2cc(C(N)=O)ncn2)n1", "note": "[I-85]", "efficacy (fleas dead or moribund)": 100},
      {"molecule": "CNC(=O)c1cc(-n2nc(C)nc2[C@H](C)NC(=O)c2cc(Cl)cc(OC(F)(F)F)c2)ncn1", "note": "[I-87]", "efficacy (fleas dead or moribund)": 100},
      {"molecule": "Cc1nc([C@H](C)NC(=O)c2cc(Br)cc(OC(F)F)c2)n(-c2cc(C(N)=O)ncn2)n1", "note": "[I-89]", "efficacy (fleas dead or moribund)": 100},
      {"molecule": "Cc1nc([C@H](C)NC(=O)c2cc(Cl)cc(Cl)c2)n(-c2cc(C(N)=O)ncn2)n1", "note": "[I-95]", "efficacy (fleas dead or moribund)": 100},
      {"molecule": "Cc1nc([C@H](C)NC(=O)c2cc(OC(F)F)cc(OC(F)F)c2)n(-c2cc(C(N)=O)ncn2)n1", "note": "[I-98]", "efficacy (fleas dead or moribund)": 100}
    ]},
    {"test_system": "adult brown dog ticks (Rhipicephalus sanguineus)", "experiment": "Rhipicephalus sanguineus in-vitro contact test, adult brown dog ticks", "format": "in vivo", "details": "48 h, read-out: efficacy (ticks dead or moribund)", "method": "Rhipicephalus sanguineus—In-Vitro Contact Tests with Adult Brown Dog Ticks\nas §1\nas §2, with “brown dog ticks (Rhipicephalus sanguineus),” for “cat fleas (Ctenocephalides felis),”, “ticks” for “fleas”, “ticks,” for “fleas,”\nAn efficacy of 100% means all ticks are dead or moribund; 0% means no ticks are dead or moribund.", "units": {"pest or weed control at 5 µg/cm2, 500 g/ha": "%"}, "values": [
      {"molecule": "Cc1nc([C@H](C)NC(=O)c2cc(Cl)cc(OC(F)(F)F)c2)n(-c2cc(C(N)=O)ncn2)n1", "note": "[I-85]", "pest or weed control at 5 µg/cm2, 500 g/ha": 100},
      {"molecule": "CNC(=O)c1cc(-n2nc(C)nc2[C@H](C)NC(=O)c2cc(Cl)cc(OC(F)(F)F)c2)ncn1", "note": "[I-87]", "pest or weed control at 5 µg/cm2, 500 g/ha": 100},
      {"molecule": "Cc1nc([C@H](C)NC(=O)c2cc(Br)cc(OC(F)F)c2)n(-c2cc(C(N)=O)ncn2)n1", "note": "[I-89]", "pest or weed control at 5 µg/cm2, 500 g/ha": 100},
      {"molecule": "Cc1nc([C@H](C)NC(=O)c2cc(Cl)cc(Cl)c2)n(-c2cc(C(N)=O)ncn2)n1", "note": "[I-95]", "pest or weed control at 5 µg/cm2, 500 g/ha": 100},
      {"molecule": "Cc1nc([C@H](C)NC(=O)c2cc(OC(F)F)cc(OC(F)F)c2)n(-c2cc(C(N)=O)ncn2)n1", "note": "[I-98]", "pest or weed control at 5 µg/cm2, 500 g/ha": 100}
    ]},
    {"test_system": "larvae of the banded cucumber beetle (Diabrotica balteata)", "experiment": "Diabrotica balteata spray test", "format": "in vivo", "details": "168 h, 100 g/ha (=32 μg/well), after 7 days, read-out: efficacy (seedling growth)", "outline": "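Germinated wheat seeds on agar (5 per well) were sprayed with compound formulated in acetone/DMF and diluted in water with 1000 ppm emulsifier. Each unit was then infested with 10–20 larvae. Efficacy % was scored after 7 days as seedling growth relative to an untreated, uninfested control (100% = normal growth).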", "units": {"pest or weed control at 32 µg/disc, 100 g/ha": "%"}, "values": [
      {"molecule": "Cc1nc([C@H](C)NC(=O)c2cc(Cl)cc(OC(F)(F)F)c2)n(-c2cc(C(N)=O)ncn2)n1", "note": "[I-85]", "pest or weed control at 32 µg/disc, 100 g/ha": 100},
      {"molecule": "CNC(=O)c1cc(-n2nc(C)nc2[C@H](C)NC(=O)c2cc(Cl)cc(OC(F)(F)F)c2)ncn1", "note": "[I-87]", "pest or weed control at 32 µg/disc, 100 g/ha": 100},
      {"molecule": "Cc1nc([C@H](C)NC(=O)c2cc(Br)cc(OC(F)F)c2)n(-c2cc(C(N)=O)ncn2)n1", "note": "[I-89]", "pest or weed control at 32 µg/disc, 100 g/ha": 100},
      {"molecule": "Cc1nc([C@H](C)NC(=O)c2cc(Cl)cc(Cl)c2)n(-c2cc(C(N)=O)ncn2)n1", "note": "[I-95]", "pest or weed control at 32 µg/disc, 100 g/ha": 100},
      {"molecule": "Cc1nc([C@H](C)NC(=O)c2cc(OC(F)F)cc(OC(F)F)c2)n(-c2cc(C(N)=O)ncn2)n1", "note": "[I-98]", "pest or weed control at 32 µg/disc, 100 g/ha": 100}
    ]},
    {"test_system": "green peach aphid (Myzus persicae)", "experiment": "Myzus persicae spray test (MYZUPE)", "format": "in vivo", "details": "120 h, 100 g/ha, after 5 days", "outline": "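Chinese cabbage leaf disks infested with all instars of Myzus persicae were sprayed with compound formulated in acetone/dimethylformamide and diluted in water with 1000 ppm alkylarylpolyglycol ether emulsifier. Percent mortality was scored after 5 days, 100% meaning all aphids killed.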", "units": {"mortality at 100 g/ha": "%"}, "values": [
      {"molecule": "Cc1nc([C@H](C)NC(=O)c2cc(Cl)cc(OC(F)(F)F)c2)n(-c2cc(C(N)=O)ncn2)n1", "note": "[I-85]", "mortality at 100 g/ha": 100},
      {"molecule": "CNC(=O)c1cc(-n2nc(C)nc2[C@H](C)NC(=O)c2cc(Cl)cc(OC(F)(F)F)c2)ncn1", "note": "[I-87]", "mortality at 100 g/ha": 100},
      {"molecule": "Cc1nc([C@H](C)NC(=O)c2cc(Br)cc(OC(F)F)c2)n(-c2cc(C(N)=O)ncn2)n1", "note": "[I-89]", "mortality at 100 g/ha": 100},
      {"molecule": "Cc1nc([C@H](C)NC(=O)c2cc(Cl)cc(Cl)c2)n(-c2cc(C(N)=O)ncn2)n1", "note": "[I-95]", "mortality at 100 g/ha": 90},
      {"molecule": "Cc1nc([C@H](C)NC(=O)c2cc(OC(F)F)cc(OC(F)F)c2)n(-c2cc(C(N)=O)ncn2)n1", "note": "[I-98]", "mortality at 100 g/ha": 100}
    ]},
    {"test_system": "larvae of the southern green stink bug (Nezara viridula)", "experiment": "whole plant or invertebrate", "format": "in vivo", "details": "96 h", "outline": "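Compound in acetone/DMF was diluted in water with 1000 ppm alkylarylpolyglycol ether emulsifier. Barley plants were sprayed with it, then infested with Nezara viridula larvae. Mortality % was scored after 4 days (100% = all killed).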", "units": {"mortality at 500 g/ha": "%"}, "values": [
      {"molecule": "Cc1nc([C@H](C)NC(=O)c2cc(Cl)cc(OC(F)(F)F)c2)n(-c2cc(C(N)=O)ncn2)n1", "note": "[I-85]", "mortality at 500 g/ha": 100},
      {"molecule": "CNC(=O)c1cc(-n2nc(C)nc2[C@H](C)NC(=O)c2cc(Cl)cc(OC(F)(F)F)c2)ncn1", "note": "[I-87]", "mortality at 500 g/ha": 100},
      {"molecule": "Cc1nc([C@H](C)NC(=O)c2cc(Br)cc(OC(F)F)c2)n(-c2cc(C(N)=O)ncn2)n1", "note": "[I-89]", "mortality at 500 g/ha": 100},
      {"molecule": "Cc1nc([C@H](C)NC(=O)c2cc(Cl)cc(Cl)c2)n(-c2cc(C(N)=O)ncn2)n1", "note": "[I-95]", "mortality at 500 g/ha": 100},
      {"molecule": "Cc1nc([C@H](C)NC(=O)c2cc(OC(F)F)cc(OC(F)F)c2)n(-c2cc(C(N)=O)ncn2)n1", "note": "[I-98]", "mortality at 500 g/ha": 100}
    ]},
    {"test_system": "brown planthopper (Nilaparvata lugens)", "experiment": "Nilaparvata lugens spray test", "format": "in vivo", "details": "96 h", "method": "Nilaparvata lugens—Spray Test\n• Solvent: 78.0 parts by weight of acetone • 1.5 parts by weight of dimethylformamide • Emulsifier: alkylarylpolyglycol ether\nTo produce a suitable preparation of active compound, 1 part by weight of active compound is mixed with the stated amount of solvents and is diluted with water, containing an emulsifier concentration of 1000 ppm, to the desired concentration. Further test concentrations are prepared by dilution with emulsifier containing water.\nRice plants (Oryza sativa) are sprayed with a preparation of the active ingredient of the desired concentration and the plants are infested with the brown planthopper (Nilaparvata lugens).\nAfter 4 days mortality in % is determined. 100% means all planthoppers have been killed and 0% means none of the planthoppers have been killed.", "units": {"mortality at 500 g/ha": "%"}, "values": [
      {"molecule": "Cc1nc([C@H](C)NC(=O)c2cc(Cl)cc(OC(F)(F)F)c2)n(-c2cc(C(N)=O)ncn2)n1", "note": "[I-85]", "mortality at 500 g/ha": 90}
    ]},
    {"test_system": "fall armyworm larvae (Spodoptera frugiperda)", "experiment": "whole plant or invertebrate", "format": "in vivo", "details": "168 h", "outline": "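Maize leaf sections sprayed with compound in acetone/DMF with alkylarylpolyglycol ether emulsifier diluted in water, then infested with fall armyworm larvae once dry. Mortality (%) scored after 7 days; 100% = all caterpillars killed.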", "units": {"mortality at 100 g/ha": "%"}, "values": [
      {"molecule": "Cc1nc([C@H](C)NC(=O)c2cc(Cl)cc(OC(F)(F)F)c2)n(-c2cc(C(N)=O)ncn2)n1", "note": "[I-85]", "mortality at 100 g/ha": 100},
      {"molecule": "CNC(=O)c1cc(-n2nc(C)nc2[C@H](C)NC(=O)c2cc(Cl)cc(OC(F)(F)F)c2)ncn1", "note": "[I-87]", "mortality at 100 g/ha": 100},
      {"molecule": "Cc1nc([C@H](C)NC(=O)c2cc(Br)cc(OC(F)F)c2)n(-c2cc(C(N)=O)ncn2)n1", "note": "[I-89]", "mortality at 100 g/ha": 100},
      {"molecule": "Cc1nc([C@H](C)NC(=O)c2cc(Cl)cc(Cl)c2)n(-c2cc(C(N)=O)ncn2)n1", "note": "[I-95]", "mortality at 100 g/ha": 100},
      {"molecule": "Cc1nc([C@H](C)NC(=O)c2cc(OC(F)F)cc(OC(F)F)c2)n(-c2cc(C(N)=O)ncn2)n1", "note": "[I-98]", "mortality at 100 g/ha": 100}
    ]}
  ]
}
